This passage reports EC50 results from article PMC4578755, “Development of novel cellular histone-binding and chromatin-displacement assays for bromodomain drug discovery” (Epigenetics & Chromatin, 2015).

This experiment concerns the target T1, TRIM24-PB binding to endogenous histone H3 in HeLa TRIM24-PB cells (Homo sapiens, UniProt O15164).
T1 construct: The FLAG-TRIM24-PB construct (residues 810–1050) was generated by PCR amplification; expressed in transfected cells
T1 sequence (O15164 810-1050): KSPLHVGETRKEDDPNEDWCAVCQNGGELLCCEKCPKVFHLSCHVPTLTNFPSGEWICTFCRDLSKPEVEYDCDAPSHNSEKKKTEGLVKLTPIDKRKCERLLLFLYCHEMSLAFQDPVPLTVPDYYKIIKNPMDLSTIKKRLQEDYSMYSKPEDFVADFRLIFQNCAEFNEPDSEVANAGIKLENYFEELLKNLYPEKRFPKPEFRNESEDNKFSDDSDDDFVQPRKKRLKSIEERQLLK
As to the kind of experiment: Cellular TRIM24/histone H3 AlphaLISA binding assay. Particulars: co-treated with SAHA, 2 h, 6 independent experiments, listed as TRIM24 inhibitor, read-out: Cell EC50 (AlphaLISA). The experiment is classed as cell-based. As to the method:
Hela TRIM24-PB cells were maintained in DMEM medium supplemented with 10 % FBS and 5 µg/mL of Blasticidin. Cells were seeded (10,000/well, 40 µL) to 384-well white culture plates (PerkinElmer, #6007680) using a Multidrop 384 reagent dispenser (Thermo Scientific) and incubated overnight at 37 °C and 5 % CO2. On Day 2, the cells were co-treated with SAHA (10 µM) and test compound and incubated at 37 °C and 5 % CO2 for 2 h. The plates were washed twice with PBS (60 µL at RT) using a Biomek FX liquid handler (Beckman Coulter). […] Plates were read on Envision plate reader (PerkinElmer) using AlphaScreen protocol and all IC50 values (four-parameter logistic curve) were obtained using GraphPad Prism 6 software. […]
All EC50 values were calculated based on these POC values using four-parametric nonlinear regression (i.e., curve fitting) software (either Genedata Screener™ software version 11 or Graphpad Prism 6). For the cell-based AlphaLISA assay, the POC values were calculated using the following wells and process: (1) a “blank subtraction” was performed by subtracting the mean signal of the blank control wells (which contained media but lacked cells) from all of the measured values; (2) these corrected values were then used in the POC formula stated above. […] Average and standard Deviation (SD) values were calculated using the Harmony software (PerkinElmer). […]
(In Alpha technology, singlet oxygen from a donor bead excites a nearby acceptor bead.)

In general, EC50 refers to the concentration at which the effect is half-maximal. Take `Cc1nc(S(=O)(=O)Nc2cc3c(cc2Oc2cccc(OCC(C)C)c2)n(C)c(=O)n3C)cn1C` [IACS-6558, N-{1,3-dimethyl-6-[3-(2-methylpropoxy)phenoxy]-2-oxo-2,3-dihydro-1H-1,3-benzodiazol-5-yl}-1,2-dimethyl-1H-imidazole-4-sulfonamide]: the concentration giving a half-maximal response (EC50) stood at 1.3 µM.
